From patent publication US20250163056A1, “NONMUSCLE MYOSIN II INHIBITORS” (The University of Florida Research Foundation, Inc., priority 2018, published 2025)

Experiments:
Rabbit skeletal myosin = experiment: Skeletal muscle myosin II actin-activated ATPase assay; format: biochemical; conditions: 20 nM skeletal muscle myosin II; read-out: SKMMII KI
Source text: (§1) The cardiac muscle myosin II actin-activated ATPase assay is a biochemical assay. Specifically, it is an NADH (nicotinamide adenine dinucleotide)-coupled ATPase assay that relies on NADH fluorescence as a readout. Cardiac myosin is a mechanochemical energy transducer that hydrolyzes ATP to generate force in the presence of its activator, F-actin. The resulting ADP is regenerated to ATP by pyruvate kinase (PK) that transforms one molecule of phosphoenolpyruvate (PEP) to pyruvate in parallel. Subsequently, pyruvate is reduced to lactate by lactate dehydrogenase (LDH) that, in turn, oxidizes one molecule of NADH to NAD. Therefore, the decrease in NADH concentration as a function of time equals the ATP hydrolysis rate. Bovine cardiac myosin is obtained from a commercial source, Cytoskeleton. PK, LDH, ATP, PEP, and NADH are obtained from Sigma. F-actin is prepared in house from Rabbit Muscle Acetone Powder. The assay is run at 25° C. in 384 well black-wall polystyrene microplates with a total volume of 20 μl per well. NADH fluorescence is monitored for 30 minutes with an EnVision Multimode Plate Reader. The slope of the fluorescence response, which is proportional to the reaction rate, is determined by simple linear regression. Final assay conditions are 300 nM cardiac myosin, 10 μM actin, 40 U/ml LDH, 200 U/ml PK, 220 μM NADH, 1 mM PEP, 1 mM ATP in a buffer containing 10 mM 3-(N-morpholino)propanesulfonic acid (pH=7.0), 2 mM MgCl2, 0.15 mM ethylene glycol-bis(p-aminoethyl ether)-N,N,N′,N′-tetraacetic acid, 0.1 mg/mL bovine serum albumin, 0.5% (V/V) dimethyl sulfoxide (DMSO) and 1 mM dithiothreitol. Prior to testing the inhibitory activity of the compounds, a two-fold dilution series starting at 10 mM compound concentration is prepared in DMSO. Subsequently, 100 nl is transferred to each well of the measuring plate containing a mixture of myosin, LDH and PK. The enzymatic reaction is started with the addition of a mixture containing ATP, PEP, NADH and actin. The highest final compound concentration is 50 uM. 20 μM para-aminoblebbistatin in 0.5% DMSO serves as the positive control and 0.5% DMSO alone is the negative control. Reaction rates are determined by using the fluorescence responses of a dilution series of NADH included in all plates and plotted as a function of inhibitor concentration. All measurements are carried out in triplicate. Inhibitory constants are determined by fitting the 16 point dose-response data to a quadratic equation corresponding to a simple one-to-one binding model.
The skeletal muscle myosin II actin-activated ATPase assay is performed the same as for cardiac muscle myosin II with the following exceptions: Rabbit skeletal myosin is obtained from Cytoskeleton and the final assay conditions contain 20 nM skeletal muscle myosin II.

Bovine cardiac myosin = Bovine cardiac myosin (Bos taurus (Bovine), UniProt Q9BE39); experiment: Cardiac muscle myosin II actin-activated ATPase assay (NADH-coupled); format: biochemical; parameters: key to Ratio CMMII:NMII Ki/EC50: NMII-sel: no Ki value for cardiac myosin II could be determined; the compounds had no detectable inhibitory properties versus the cardiac myosin II; conditions: for Ki: 300 nM cardiac myosin, 10 μM actin, 25° C., read-out: CMMII KI; for Ratio CMMII:NMII Ki/EC50: cardiac myosin II Ki over nonmuscle myosin II EC50
Source text: as §1

[1] = Photostability, percentage remaining undegraded under illumination or in the dark; conditions: for Photostability 4 hours: percentage remaining undegraded after 4 hours illumination; for Photostability 24 hours: percentage remaining undegraded after 24 hours illumination; for Photostability Dark (24 h): percentage remaining undegraded in the dark

Bovine cardiac myosin, sequence (Q9BE39 whole entry): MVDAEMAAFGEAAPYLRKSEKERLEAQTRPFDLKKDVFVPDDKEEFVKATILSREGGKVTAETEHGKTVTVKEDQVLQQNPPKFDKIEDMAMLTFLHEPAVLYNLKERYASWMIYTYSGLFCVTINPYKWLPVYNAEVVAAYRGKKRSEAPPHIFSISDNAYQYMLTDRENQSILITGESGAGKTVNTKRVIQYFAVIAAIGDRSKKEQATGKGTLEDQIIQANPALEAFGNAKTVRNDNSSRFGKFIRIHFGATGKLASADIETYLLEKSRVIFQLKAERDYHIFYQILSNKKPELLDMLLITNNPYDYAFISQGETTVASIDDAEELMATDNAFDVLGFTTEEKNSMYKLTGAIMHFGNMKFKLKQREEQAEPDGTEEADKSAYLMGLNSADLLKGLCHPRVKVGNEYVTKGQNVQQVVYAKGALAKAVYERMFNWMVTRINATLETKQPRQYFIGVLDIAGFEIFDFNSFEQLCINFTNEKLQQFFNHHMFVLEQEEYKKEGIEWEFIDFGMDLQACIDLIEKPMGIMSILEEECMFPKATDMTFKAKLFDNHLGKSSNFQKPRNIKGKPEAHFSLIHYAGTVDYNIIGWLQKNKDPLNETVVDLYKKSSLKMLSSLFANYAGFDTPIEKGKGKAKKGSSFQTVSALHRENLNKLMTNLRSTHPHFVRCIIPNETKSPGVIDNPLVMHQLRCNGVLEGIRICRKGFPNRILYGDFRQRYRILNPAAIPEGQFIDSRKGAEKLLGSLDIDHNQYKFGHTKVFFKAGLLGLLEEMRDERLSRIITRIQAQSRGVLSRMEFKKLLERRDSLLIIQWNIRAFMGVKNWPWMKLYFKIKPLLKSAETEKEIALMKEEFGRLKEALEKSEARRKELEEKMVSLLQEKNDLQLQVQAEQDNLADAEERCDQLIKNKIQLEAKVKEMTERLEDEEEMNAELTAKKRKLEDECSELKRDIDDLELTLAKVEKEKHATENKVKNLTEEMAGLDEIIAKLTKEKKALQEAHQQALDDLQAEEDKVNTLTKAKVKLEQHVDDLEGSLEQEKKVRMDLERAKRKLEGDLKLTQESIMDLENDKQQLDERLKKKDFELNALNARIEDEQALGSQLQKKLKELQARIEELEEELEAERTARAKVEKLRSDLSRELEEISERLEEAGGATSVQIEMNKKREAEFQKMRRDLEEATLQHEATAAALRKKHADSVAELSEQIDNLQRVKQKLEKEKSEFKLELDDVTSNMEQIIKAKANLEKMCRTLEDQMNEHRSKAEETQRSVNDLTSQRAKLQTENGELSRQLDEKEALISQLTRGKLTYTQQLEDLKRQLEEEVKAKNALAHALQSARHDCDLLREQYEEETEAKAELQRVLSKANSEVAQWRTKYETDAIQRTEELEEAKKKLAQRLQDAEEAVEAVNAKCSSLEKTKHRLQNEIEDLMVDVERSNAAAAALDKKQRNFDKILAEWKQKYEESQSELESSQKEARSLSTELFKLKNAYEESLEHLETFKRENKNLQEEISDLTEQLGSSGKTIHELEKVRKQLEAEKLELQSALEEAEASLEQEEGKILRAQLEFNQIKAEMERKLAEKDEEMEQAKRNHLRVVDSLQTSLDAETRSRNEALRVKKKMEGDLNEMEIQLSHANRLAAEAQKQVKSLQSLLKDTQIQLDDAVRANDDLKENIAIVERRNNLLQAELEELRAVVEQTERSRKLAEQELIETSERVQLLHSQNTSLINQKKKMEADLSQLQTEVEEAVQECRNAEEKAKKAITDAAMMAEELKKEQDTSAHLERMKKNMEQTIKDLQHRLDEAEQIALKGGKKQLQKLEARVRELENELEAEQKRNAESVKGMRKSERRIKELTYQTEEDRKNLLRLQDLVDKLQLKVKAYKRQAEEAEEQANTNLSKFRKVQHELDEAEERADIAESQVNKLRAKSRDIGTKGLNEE
Bovine cardiac myosin, sequence (P85100 whole entry partner): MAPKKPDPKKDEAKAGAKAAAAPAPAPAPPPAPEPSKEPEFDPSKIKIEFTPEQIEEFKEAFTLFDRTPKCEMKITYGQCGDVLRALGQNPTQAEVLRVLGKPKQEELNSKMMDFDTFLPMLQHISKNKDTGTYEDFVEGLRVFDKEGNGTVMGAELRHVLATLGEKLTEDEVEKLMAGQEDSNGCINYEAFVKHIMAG
Bovine cardiac myosin, sequence (Q3SZE5 whole entry partner): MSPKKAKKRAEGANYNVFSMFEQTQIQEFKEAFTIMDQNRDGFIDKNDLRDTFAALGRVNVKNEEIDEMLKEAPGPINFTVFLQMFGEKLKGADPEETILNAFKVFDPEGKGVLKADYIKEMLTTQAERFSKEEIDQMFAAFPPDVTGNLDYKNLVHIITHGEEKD

Row | SMILES | Ki (Rabbit skeletal myosin) | Ki (Bovine cardiac myosin) | Ratio CMMII:NMII Ki/EC50 (Bovine cardiac myosin) | Photostability 4 hours [1] | Photostability 24 hours [1] | Photostability Dark (24 h) [1]
1 | COc1cccc(N2CC[C@@]3(O)C(=O)c4cc(C)ccc4N=C23)c1 [BPN-0025044] | 7 µM | 28 µM | 5.4 | 90.3% | 12.1% | >99%
2 | O=C1c2cc(C(F)(F)F)ccc2N=C2N(c3ccccc3)CC[C@@]12O [BPN-0025110] | 8 µM | 22 µM | 6.9 | 6.6% | 2.6% | >99%
3 | Cc1ccc2c(c1)C(=O)[C@]1(O)CCN(c3cccc(Br)c3)C1=N2 [BPN-0025240] | 35 µM | 400 µM | 39.2 | 93.0% | 28.6% | 94.7%
4 | Cc1ccc2c(c1)C(=O)[C@]1(O)CCN(c3ccc(C)c(Cl)c3)C1=N2 [BPN-0025254] | 7.7 µM | – | NMII-sel | 92.5% | 39.4% | >99%
5 | Cc1ccc2c(c1)C(=O)[C@]1(O)CCN(c3ccc(C)c(C)c3)C1=N2 [BPN-0025903] | 11 µM | – | NMII-sel | 39.8% | 7.5% | 98.3%
6 | COc1cc(N2CC[C@@]3(O)C(=O)c4cc(C)ccc4N=C23)ccn1 [BPN-0025919] | 1.8 µM | 18 µM | 4.6 | – | – | –
7 | Cc1ccc2c(c1)C(=O)[C@@]1(O)C(=N2)N(c2ccccc2)CC1(C)C [BPN-0026282] | – | – | NMII-sel | 64.0% | 7.0% | >99%
8 | Cc1ccc2c(c1)C(=O)[C@]1(O)CCN(c3ccc4occc4c3)C1=N2 [BPN-0026283] | 5 µM | – | NMII-sel | 39.4% | 10.8% | 92.0%
9 | Cc1ccc2c(c1)C(=O)[C@]1(O)CCN(c3ccc4ccoc4c3)C1=N2 [BPN-0026285] | 0.9 µM | 9.1 µM | 5.7 | 51.9% | 8.2% | 94.7%
10 | Cc1ccc2c(c1)C(=O)[C@]1(O)CCN(c3ccc(C#N)c(C)c3)C1=N2 [BPN-0026324] | 3.5 µM | 30 µM | 13.6 | 98.5% | 90.4% | >99%
11 | Cc1ccc2c(c1)C(=O)[C@]1(O)CCN(c3ccc(Cl)c(C)c3)C1=N2 [BPN-0026325] | 13 µM | – | NMII-sel | 89.0% | 14.0% | 97.8%
12 | Cc1cc2c(cc1F)C(=O)[C@]1(O)CCN(c3ccccc3)C1=N2 [BPN-0026387] | 1.2 µM | 13 µM | 5.2 | 85.2% | 18.0% | 93.5%
13 | COc1ccc(N2CC[C@@]3(O)C(=O)c4cc(C(F)(F)F)ccc4N=C23)cc1 [BPN-0026393] | 1.7 µM | 11 µM | 3.2 | 97.9% | 75.0% | >99%
14 | Cc1ccc2c(c1)C(=O)[C@]1(O)CCN(c3ccc(C#N)c(Cl)c3)C1=N2 [BPN-0026394] | 4.8 µM | – | NMII-sel | >99% | 98.7% | >99%
15 | O=C1c2cc(Cl)ccc2NC2N(c3ccc4ccoc4c3)CC[C@@]12O (stereo partly drawn) [BPN-0026401] | 3.3 µM | 50 µM | 16.7 | 81.2% | 9.6% | 97.7%
16 | Cc1ncc(N2CC[C@@]3(O)C(=O)c4cc(C(F)(F)F)ccc4N=C23)s1 [BPN-0026404] | 3.6 µM | 23 µM | 7.0 | – | – | –
17 | Cn1cc(N2CC[C@@]3(O)C(=O)c4cc(C(F)(F)F)ccc4N=C23)cn1 [BPN-0026413] | 33 µM | 110 µM | 3.1 | 94.3% | 82.2% | 97.3%
18 | Cc1cc(N2CC[C@@]3(O)C(=O)c4cc(Cl)ccc4N=C23)ccc1C#N [BPN-0026457] | 15 µM | – | NMII-sel | 98.6% | 77.1% | >99%
19 | O=C1c2cc(C(F)(F)F)ccc2N=C2N(c3ccc4ccoc4c3)CC[C@@]12O [BPN-0026495] | 20 µM | – | NMII-sel | 80.9% | 15.9% | 93.4%
20 | COc1cccc(N2CC[C@@]3(O)C(=O)c4cc(C)c(C)cc4N=C23)c1 [BPN-0026496] | 15 µM | 83 µM | 31.9 | 41.7% | 3.5% | 97.9%
21 | COc1cccc(N2CC[C@@]3(O)C(=O)c4cc(C)c(C)cc4N=C23)c1 [BPN-0026497] | 9.8 µM | 33 µM | 15.7 | 82.7% | 6.1% | 97.5%
22 | Cc1cc2c(cc1F)C(=O)[C@]1(O)CCN(c3ccc(C)c(Cl)c3)C1=N2 [BPN-0026606] | – | – | NMII-sel | 85.9% | 4.1% | 95.5%
23 | Cc1ccc(N2CC[C@@]3(O)C(=O)c4cc(Cl)ccc4N=C23)cc1 [BPN-0026609] | 0.43 µM | 5.5 µM | 3.7 | – | – | –
24 | Cc1ccc(N2CC[C@@]3(O)C(=O)c4cc(C)c(C(F)(F)F)cc4N=C23)cc1Cl [BPN-0026786] | – | – | NMII-sel | 87.8% | 66.6% | 96.0%
25 | Cc1cccc(N2CC[C@@]3(O)C(=O)c4cc(C)c(C(F)(F)F)cc4N=C23)c1 [BPN-0026847] | – | – | NMII-sel | 99.0% | 91.8% | >99%
26 | Cc1sc2c(c1C)C(=O)[C@]1(O)CCN(c3cccc(Br)c3)C1=N2 [BPN-0026853] | – | – | NMII-sel | 91.2% | 88.2% | 90.2%
27 | O=C1c2cc(C(F)(F)F)ccc2N=C2N(c3ccc4ncsc4c3)CC[C@@]12O [BPN-0027219] | – | – | NMII-sel | 46.2% | 3.8% | 98.3%
28 | O=C1c2c(sc3c2CCCC3)N=C2N(c3ccc4ncccc4c3)CC[C@@]12O [BPN-0027240] | – | – | NMII-sel | 94.1% | 74.6% | 98.0%
